The values below come from patent US8338422B2, “Indolin-2-ones and aza-indolin-2-ones” (Janssen Pharmaceutica NV, priority 2007, dated 2012).

Experiment [1] addresses PLK4 (h) (Homo sapiens, UniProt O00444). Description: PLK-4 human kinase assay (SPA). The experiment is classed as biochemical. Particulars: for IC50: read-out: PLK4 pIC50 (converted). The procedure, abridged: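 Radiometric readout: 33P-labelled peptide captured on streptavidin SPA beads after EDTA stop, imaged by Leadseeker. Reaction ran 60 min at room temperature in Hepes pH 8.0 buffer. It contained 1 μM ATP with 2 nM [γ-33P]ATP, 10 μM biotinylated peptide and PLK4 (h) at 19 μg/ml.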

Experiment [2] concerns the target AuroraB (h) (Homo sapiens, UniProt Q96GD4). Description: Aurora-B human kinase assay (SPA). The experiment is classed as biochemical. Particulars: for IC50: read-out: AuroraB pIC50 (converted). In a few lines: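 Scintillation proximity assay: AuroraB (h) at 0.5 μg/ml with 3 μM biotinylated peptide, 0.5 μM ATP and 2.2 nM [γ-33P]ATP in 60 mM Hepes pH 7.5, 3 mM MgCl2, 3 mM MnCl2, 2 mM DTT. 60 min at room temperature, EDTA stop, streptavidin PVT beads read on Leadseeker.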

The target of experiment [3] is GSK3β (h) (Homo sapiens, UniProt P49841). Description: GSK-3β human kinase assay (SPA). The settings on record: for IC50: read-out: GSK3B pIC50 (converted). The experiment is classed as biochemical. In a few lines:
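Radiometric SPA read-out: after EDTA stop, biotinylated 33P-labelled peptide bound streptavidin PVT beads and was imaged on Leadseeker. Reaction: 60 min, room temperature, GSK3β (h) at 1 μg/ml, 1 μM substrate peptide, 1 μM ATP with 2 nM [γ-33P]ATP, Tris pH 7.4/MgCl2/DTT buffer.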

Experiment [4] deals with CDK1/CyclinB (h) (Homo sapiens, UniProt P06493). Description: CDK1/CyclinB human kinase assay (FRET). The format is biochemical. Particulars: for IC50: read-out: CDK1 pIC50 (converted). In a few lines: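 Z'-LYTE FRET format: 0.2 μg/ml enzyme with 2 μM Ser/Thr peptide 12 and 10 μM ATP in 50 mM Hepes pH 7.5, 10 mM MgCl2, 1 mM EGTA, 0.01% Brij-35, 60 min at room temperature. Protease development 60 min; coumarin/fluorescein emission ratio (460/538 nm, excitation 390 nm) reports phosphorylation.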
Chain of CDK1/CyclinB (h) (P06493 whole entry): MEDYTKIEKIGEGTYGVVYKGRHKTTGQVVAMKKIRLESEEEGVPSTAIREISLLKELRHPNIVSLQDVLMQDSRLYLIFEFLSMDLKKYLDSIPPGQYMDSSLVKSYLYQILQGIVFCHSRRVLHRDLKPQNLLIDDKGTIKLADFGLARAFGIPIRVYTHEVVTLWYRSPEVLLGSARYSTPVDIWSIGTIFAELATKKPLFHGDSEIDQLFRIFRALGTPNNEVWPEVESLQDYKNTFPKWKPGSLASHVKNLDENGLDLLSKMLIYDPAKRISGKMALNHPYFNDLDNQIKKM
Chain of CDK1/CyclinB (h) (P14635 whole entry partner): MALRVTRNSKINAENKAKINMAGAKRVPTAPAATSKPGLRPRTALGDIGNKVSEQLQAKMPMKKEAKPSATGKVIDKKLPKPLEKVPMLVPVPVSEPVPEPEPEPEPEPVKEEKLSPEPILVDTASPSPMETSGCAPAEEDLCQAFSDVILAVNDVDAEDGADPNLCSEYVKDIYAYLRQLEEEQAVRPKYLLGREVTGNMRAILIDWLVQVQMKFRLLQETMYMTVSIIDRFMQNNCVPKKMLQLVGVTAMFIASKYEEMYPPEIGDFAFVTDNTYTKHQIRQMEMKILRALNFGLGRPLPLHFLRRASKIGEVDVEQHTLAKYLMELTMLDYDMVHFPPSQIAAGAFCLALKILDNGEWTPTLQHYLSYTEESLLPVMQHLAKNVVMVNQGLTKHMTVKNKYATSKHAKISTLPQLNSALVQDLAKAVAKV

For experiment [5], the system named is A2780. Description: Cellular proliferation assay (Alamar blue), A2780. The settings on record: A2780 cells, 72 hours with compound, 10% FCS; for IC50: Homo sapiens, A2780, 72 h, read-out: pIC50 A2780 (converted). The experiment is classed as cell-based. The method, then: (§1) […] functional properties of these compounds was tested in cellular proliferation assays on a panel of different cell lines in the presence of 10% FCS serum (37° C. and 5% (v/v) CO2). In a first step these cells were seeded and incubated for 24 hours in the absence of compound. In the second step the cells were incubated for 72 hours with the compounds to be tested for 72 hours. The viable cell number was finally assessed in a standard Alamar blue cell viability assay.
(§2) The viable cell number was assessed by incubation for either 4 h (HCT-116, H1299, H460) 6 h (SKOV3, HT29, U87-MG, Colo205) or 24 h (A2780, PC3, MDA-MB-231, A549, MCF-7) with Alamar blue (Resazurin 9 μg/ml, K-Ferrocyanide 90 μM K-Ferricyanide 90 μM) and the converted fluorescent product was quantified on a fluorescent plate readed (544 nm/590 nm). Effect of the compounds is calculated as of on control cells.

For experiment [6], the system named is HCT-116. Description: Cellular proliferation assay (Alamar blue), HCT-116. The format is cell-based. Particulars: HCT-116 cells, 72 hours with compound, 10% FCS; for IC50: Homo sapiens, HCT-116, 72 h, read-out: pIC50 HCT-116 (converted). The method, then: as §1, §2
Experiment [7] has as its system H1299. Description: Cellular proliferation assay (Alamar blue), H1299. The format is cell-based. The settings on record: H1299 cells, 72 hours with compound, 10% FCS; for IC50: Homo sapiens, NCI-H1299, 72 h, read-out: pIC50 H1299 (converted). The method, then: as §1, §2
In experiment [8] the test system is U87MG. Description: Cellular proliferation assay (Alamar blue), U87MG. The experiment is classed as cell-based. Particulars: U87MG cells, 72 hours with compound, 10% FCS; for IC50: Homo sapiens, U-87 MG, 72 h, read-out: pIC50 U87MG (converted). How it is done:
as §1, §2

Experiment [9] has as its system PC-3. Description: Cellular proliferation assay (Alamar blue), PC-3. The experiment is classed as cell-based. Particulars: PC-3 cells, 72 hours with compound, 10% FCS; for IC50: Homo sapiens, PC-3, 72 h, read-out: pIC50 PC-3 (converted). The method, then:
as §1, §2

The test system of experiment [10] is MDA/MB231. Description: Cellular proliferation assay (Alamar blue), MDA/MB231. The experiment is classed as cell-based. Particulars: MDA/MB231 cells, 72 hours with compound, 10% FCS; for IC50: Homo sapiens, MDA-MB-231, 72 h, read-out: pIC50 MDA/MB231 (converted). How it is done:
as §1, §2

Molecules are shown by their SMILES.

Chain of PLK4 (h) (O00444 whole entry): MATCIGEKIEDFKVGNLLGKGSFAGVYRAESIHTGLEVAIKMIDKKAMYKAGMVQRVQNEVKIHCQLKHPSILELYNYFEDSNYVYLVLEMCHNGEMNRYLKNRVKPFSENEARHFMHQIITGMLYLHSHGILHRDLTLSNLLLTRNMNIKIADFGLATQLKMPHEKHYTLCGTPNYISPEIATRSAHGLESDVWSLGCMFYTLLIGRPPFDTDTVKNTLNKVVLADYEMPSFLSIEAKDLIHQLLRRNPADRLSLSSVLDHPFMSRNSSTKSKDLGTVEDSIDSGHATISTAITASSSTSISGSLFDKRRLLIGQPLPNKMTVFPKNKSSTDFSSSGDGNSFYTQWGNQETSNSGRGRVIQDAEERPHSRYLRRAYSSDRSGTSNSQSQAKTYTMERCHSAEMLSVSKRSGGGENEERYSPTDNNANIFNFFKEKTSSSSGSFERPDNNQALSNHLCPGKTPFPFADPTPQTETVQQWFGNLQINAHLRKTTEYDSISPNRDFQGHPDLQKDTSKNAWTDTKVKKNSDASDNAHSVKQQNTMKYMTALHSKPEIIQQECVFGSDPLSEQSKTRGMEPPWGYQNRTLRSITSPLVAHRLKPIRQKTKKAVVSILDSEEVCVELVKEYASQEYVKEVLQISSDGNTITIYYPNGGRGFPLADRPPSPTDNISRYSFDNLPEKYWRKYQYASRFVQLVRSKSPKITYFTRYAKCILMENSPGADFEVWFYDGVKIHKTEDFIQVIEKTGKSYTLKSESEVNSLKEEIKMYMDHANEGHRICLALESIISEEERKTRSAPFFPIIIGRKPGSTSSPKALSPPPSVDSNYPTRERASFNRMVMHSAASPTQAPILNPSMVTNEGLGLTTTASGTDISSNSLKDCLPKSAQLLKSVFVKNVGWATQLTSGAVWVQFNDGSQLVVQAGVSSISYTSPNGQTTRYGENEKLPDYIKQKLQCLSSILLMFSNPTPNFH
Chain of GSK3β (h) (P49841 whole entry): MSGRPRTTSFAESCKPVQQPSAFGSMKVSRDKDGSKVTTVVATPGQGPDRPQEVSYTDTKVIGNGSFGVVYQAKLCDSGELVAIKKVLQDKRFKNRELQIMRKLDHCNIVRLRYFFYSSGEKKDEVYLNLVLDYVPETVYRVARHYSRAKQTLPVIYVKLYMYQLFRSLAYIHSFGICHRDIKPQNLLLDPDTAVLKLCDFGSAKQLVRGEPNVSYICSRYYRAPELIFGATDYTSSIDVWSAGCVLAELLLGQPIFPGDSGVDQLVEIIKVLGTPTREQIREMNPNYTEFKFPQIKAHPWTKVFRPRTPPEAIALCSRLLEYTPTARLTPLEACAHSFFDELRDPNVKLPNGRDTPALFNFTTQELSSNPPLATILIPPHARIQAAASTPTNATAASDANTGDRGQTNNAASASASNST
Chain of AuroraB (h) (Q96GD4 whole entry): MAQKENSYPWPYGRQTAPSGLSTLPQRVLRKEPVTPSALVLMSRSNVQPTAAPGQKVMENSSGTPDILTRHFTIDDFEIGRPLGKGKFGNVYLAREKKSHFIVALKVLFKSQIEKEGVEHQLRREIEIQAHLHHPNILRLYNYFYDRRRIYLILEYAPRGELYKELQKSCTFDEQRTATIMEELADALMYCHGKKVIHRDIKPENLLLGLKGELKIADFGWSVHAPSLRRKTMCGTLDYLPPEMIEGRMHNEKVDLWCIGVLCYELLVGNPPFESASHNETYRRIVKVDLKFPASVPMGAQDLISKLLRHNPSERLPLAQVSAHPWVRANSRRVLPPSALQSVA

For `CN1CCN(c2ccc3cc2OCCCC(=O)N(C)CCCNc2ncnc4c2C(=CN3)C(=O)N4)CC1` (mixture of isomers) [Compound 133], in [1], the “PLK4 pIC50” value was 7.21. In experiment [2], the “AuroraB pIC50” value came to 5.81. Besides, in experiment [3], the “GSK3B pIC50” value is recorded as 6.95. In [4], the “CDK1 pIC50” value amounted to 6.8. Also, in experiment [5], the “pIC50 A2780” value was found to be 6.00. Further, the “pIC50 HCT-116” value in [6] is 6.16. Besides, in [7], the “pIC50 H1299” value worked out at 5.17. In experiment [8], the “pIC50 U87MG” value turned out to be 5.65. Moreover, the “pIC50 PC-3” value in experiment [9] is reported as 5.02.

`O=C1CCCOc2cccc(c2)NC=C2C(=O)Nc3ncnc(c32)NCCCN1` (mixture of isomers) [Compound 142]: in experiment [1], the “PLK4 pIC50” value is listed as 7.3. Moreover, the “AuroraB pIC50” value in experiment [2] is recorded as 6.93. Also, the “GSK3B pIC50” value in [3] was 7.7. Besides, in experiment [4], the “CDK1 pIC50” value was 6.83. Also, the “pIC50 A2780” value in experiment [5] is less than 5. The “pIC50 H1299” value in experiment [7] is given as 6.14. The “pIC50 MDA/MB231” value in experiment [10] is less than 5. In addition, the “pIC50 U87MG” value in [8] is 5.19. In addition, in experiment [9], the “pIC50 PC-3” value is given as 5.75.

For the compound `COc1ccc2cc1OCCCC(=O)NCCCNc1ncnc3c1C(=CN2)C(=O)N3` (mixture of isomers) [Compound 146], the “PLK4 pIC50” value in experiment [1] is on record as 7.34. Also, in experiment [2], the “AuroraB pIC50” value turned out to be 7.24. Further, in [3], the “GSK3B pIC50” value was determined as 7.56. In experiment [4], the “CDK1 pIC50” value was 7.21. Further, the “pIC50 A2780” value in experiment [5] stood at 5.83. Further, the “pIC50 HCT-116” value in experiment [6] was found to be 6.15. Besides, the “pIC50 H1299” value in experiment [7] amounted to 6.41. In addition, the “pIC50 U87MG” value in experiment [8] was determined as 5.80. Besides, the “pIC50 PC-3” value in experiment [9] is given as 6.22.

Turning to `O=C1Nc2ncnc3c2/C1=C/Nc1ccc(Cl)c(c1)OCCCCCC(=O)N1CCN3CC1` [Compound 25], the IC50 in [1], in [5], in experiment [10], in experiment [8] and in experiment [9] was more than 10000 nM in each case.

As for `CC(C)N1CCCCCCC(=O)N2CCN(CC2)c2ncnc3c2/C(=C/Nc2ccc(F)c(c2)C1)C(=O)N3` [Compound 29], the IC50 in experiment [1], in experiment [5], in experiment [6], in [10], in experiment [8] and in experiment [9] was more than 10000 nM each time.

For the compound `CN1CCCNc2ncnc3c2/C(=C/Nc2ccc(Cl)c(c2)OCCCCC1=O)C(=O)N3` [Compound 61], the IC50 was 1780 nM in experiment [1]; 51.3 nM in experiment [2]; 63.1 nM in experiment [3]; more than 10000 nM in experiment [4]; more than 10000 nM in experiment [5]; 8710 nM in experiment [6]. Also, the IC50 in experiment [7], in experiment [10] and in experiment [9] was more than 10000 nM in each case.

As to `CN1CCCNc2ncnc3c2/C(=C/Nc2cccc(c2)OCCCCCCC1=O)C(=O)N3` [Compound 69], the IC50 was 3390 nM in experiment [1]; 5010 nM in [2]; 1070 nM in experiment [3]; more than 10000 nM in experiment [4]; more than 10000 nM in [5]; more than 10000 nM in experiment [6]. Moreover, the IC50 in experiment [7] and in experiment [8] was more than 10000 nM in each case.

Consider `C[C@@H]1CN(C)CCCNc2ncnc3c2/C(=C/Nc2cccc(c2)OCC(=O)N1)C(=O)N3` [Compound 99], for which the IC50 in experiment [1] was 417 nM; in experiment [2], more than 10000 nM; in experiment [3], 2040 nM; in experiment [5], more than 10000 nM; in [6], more than 10000 nM; in [7], more than 10000 nM. The IC50 in experiment [10], in experiment [8] and in [9] was more than 10000 nM each time.

Turning to `CN1CCCNc2ncnc3c2/C(=C/Nc2ccc(NC(=O)NC4CCCCC4)c(c2)OCCCC1=O)C(=O)N3` [Compound 107], the IC50 was 1050 nM in [1]; 275 nM in experiment [2]; 2000 nM in experiment [3]; 72.4 nM in experiment [5]; 170 nM in [6]; 275 nM in experiment [7]. Moreover, the IC50 in experiment [10] is 2340 nM; in experiment [8], 2040 nM; in experiment [9], 1580 nM.

Consider `CN1CCCNc2ncnc3c2/C(=C/Nc2ccc(NC(=O)c4ccccc4)c(c2)OCCCC1=O)C(=O)N3` [Compound 108], for which the IC50 in experiment [1] was 891 nM; in experiment [2], 617 nM; in [3], 1550 nM; in experiment [5], more than 10000 nM; in [6], more than 10000 nM; in [7], more than 10000 nM. In addition, the IC50 in experiment [10] is 8320 nM; in experiment [8] it was more than 10000 nM; in experiment [9], more than 10000 nM.

Turning to `CN1CCCNc2ncnc3c2/C(=C/Nc2ccc(NS(=O)(=O)c4ccccc4)c(c2)OCCCC1=O)C(=O)N3` [Compound 109], the IC50 in [1] is 224 nM; in experiment [2] it was 91.2 nM; in experiment [3], 141 nM; in experiment [5], 871 nM; in [6], 603 nM; in experiment [7], more than 10000 nM. Further, the IC50 in experiment [10], in [8] and in [9] was more than 10000 nM throughout.

With `CN1CCCNc2ncnc3c2/C(=C/Nc2ccc(NCc4ccccc4)c(c2)OCCCC1=O)C(=O)N3` [Compound 110], the IC50 is 407 nM in [1]; 537 nM in experiment [2]; 912 nM in [3]; 1170 nM in [5]; 1660 nM in experiment [6]; 2630 nM in experiment [7]. In addition, the IC50 in experiment [10] is more than 10000 nM; in experiment [8] it was 8710 nM; in experiment [9], 5010 nM.

For the compound `COc1nc2c3c(n1)NC(=O)/C3=C\Nc1ccc(Cl)c(c1)OCCCCC(=O)N(C)CCCN2` [Compound 111], the IC50 in experiment [2] is more than 10000 nM; in experiment [3], 3090 nM; in experiment [5], 3240 nM; in [6], 3630 nM; in [7] it was more than 10000 nM; in [8], 2690 nM. Besides, in [9], the IC50 was 6460 nM.

With `CN1CCN(c2ccc3cc2CN(C)CCCC(=O)N(C)CCCNc2ncnc4c2/C(=C/N3)C(=O)N4)CC1` [Compound 140], the IC50 was 525 nM in [1]; more than 10000 nM in [2]; 51.3 nM in experiment [3]; 1550 nM in experiment [4]; 1230 nM in [5]; 2630 nM in experiment [7]. The IC50 was 501 nM in experiment [8] and 6170 nM in experiment [9].

For `CN1CCCNc2ncnc3c2/C(=C/Nc2ccc(NC(=O)Nc4ccccc4)c(c2)OCCCC1=O)C(=O)N3` [Compound 158], the IC50 was 2750 nM in experiment [1]; 331 nM in experiment [2]; 3550 nM in experiment [3]; 166 nM in [5]; 229 nM in experiment [6]; 550 nM in experiment [7]. Moreover, the IC50 in [10] was 4370 nM; in [8] it was 1230 nM; in experiment [9], 1320 nM.

On to `COc1ccc2cc1OCC(=O)NCCN1CCN(CC1)c1ncnc3c1/C(=C/N2)C(=O)N3` [Compound 207], for which the IC50 is 1860 nM in [2]; 4070 nM in experiment [3]; more than 10000 nM in experiment [5]; more than 10000 nM in experiment [6]; more than 10000 nM in [7]; more than 10000 nM in experiment [10]. The IC50 in experiment [8] and in experiment [9] was more than 10000 nM each time.
